Results taken from patent US6699868B2, “Pyridazinyl phenyl hydrazones useful against congestive heart failure” (Orion Corporation, priority 2000, dated 2004).

| SMILES | melting point |
| --- | --- |
| CC1CC(=O)NN=C1c1ccc(NN=Cc2ccc([N+](=O)[O-])cc2[N+](=O)[O-])cc1 (centres unmarked) | 278 to 280 °C |
| CC1CC(=O)NN=C1c1ccc(NN=Cc2ccccc2C(F)(F)F)cc1 (centres unmarked) [Example 11, 6-{4-[N′-(2-trifluoromethyl-benzylidene)-hydrazino]-phenyl}-5-methyl-4,5-dihydro-2H-pyridazin-3-one] | 113 to 115 °C |
| CC1CC(=O)NN=C1c1ccc(NN=Cc2ccccc2[N+](=O)[O-])cc1 (centres unmarked) [Example 58, 6-{4-[N′-(2-nitro-benzylidene)-hydrazino]-phenyl}-5-methyl-4,5-dihydro-2H-pyridazin-3-one] | 250 to 253 °C |
| O=c1[nH]nc(-c2ccc(NN=C(c3ccc(O)cc3O)c3ccc(O)cc3O)cc2)c2ccccc12 [Example 17, 4-(4-{N′-[Bis-(2,4-dihydroxy-phenyl)-methylene]-hydrazino}-phenyl)-2H-phthalazin-1-one] | 140 to 146 °C |
| CC1CC(=O)NN=C1c1ccc(NN=Cc2c([N+](=O)[O-])cccc2[N+](=O)[O-])cc1 (centres unmarked) | 216 to 218 °C |
| COc1ccc(C=NNc2ccc(C3=NNC(=O)CC3C)cc2)cc1 (centres unmarked) [Example 55, 6-{4-[N′-(4-Methoxy-benzylidene)-hydrazino]-phenyl}-5-methyl-4,5-dihydro-2H-pyridazin-3-one] | 172 to 174 °C |
| COc1cccc(C=NNc2ccc(C3=NNC(=O)CC3C)cc2)c1O (centres unmarked) [Example 57, 6-{4-[N′-(2-Hydroxy-3-methoxy-benzylidene)-hydrazino]-phenyl}-5-methyl-4,5-dihydro-2H-pyridazin-3-one] | 210 to 213 °C |
| CC1CC(=O)NN=C1c1ccc(NN=Cc2ccc([N+](=O)[O-])cc2)cc1 (centres unmarked) [Example 52, 6-{4-[N′-(4-nitrobenzylidene)-hydrazino]-phenyl}-5-methyl-4,5-dihydro-2H-pyridazin-3-one] | 216 to 217 °C |
| CC1CC(=O)NN=C1c1ccc(NN=Cc2cccc(O)c2)cc1 (centres unmarked) [Example 62, 6-{4-[N′-(3-Hydroxy-benzylidene)-hydrazino]-phenyl}-5-methyl-4,5-dihydro-2H-pyridazin-3-one] | 267 to 270 °C |
| CC1CC(=O)NN=C1c1ccc(C(=NN)c2ccccc2C(=O)O)cc1 (centres unmarked) [Example 10, 2-{[4-(4-Methyl-6-oxo-1,4,5,6-tetrahydro-pyridazin-3-yl)-phenyl]-hydrazonomethyl}-benzoic acid] | 250 to 251 °C |
| CC1CC(=O)NN=C1c1ccc(NN=Cc2ccccc2O)cc1 (centres unmarked) [Example 54, 6-{4-[N′-(2-Hydroxy-benzylidene)-hydrazino]-phenyl}-5-methyl-4,5-dihydro-2H-pyridazin-3-one] | 265 to 268 °C |
| CC1CC(=O)NN=C1c1ccc(NN=Cc2ccc(Cl)cc2Cl)cc1 (centres unmarked) [Example 42, 6-{4-[N′-(2,4-Dichloro-benzylidene)-hydrazino]-phenyl}-5-methyl-4,5-dihydro-2H-pyridazin-3-one] | 252 to 254 °C |
| CC1CC(=O)NN=C1c1ccc(NN=Cc2cc([N+](=O)[O-])ccc2O)cc1 (centres unmarked) [Example 5, 6-{4-[N′-(2-Hydroxy-5-nitro-benzylidene)-hydrazino]-phenyl}-5-methyl-4,5-dihydro-2H-pyridazin-3-one] | 299 to 300 °C |
| O=c1[nH]nc(-c2ccc(NN=Cc3ccc(O)cc3O)cc2)c2ccccc12 [Example 18, 4-{4-[N′-(2,4-Dihydroxy-benzylidene)-hydrazino]-phenyl}-2H-phthalazin-1-one] | 278 to 283 °C |
| CC1CC(=O)NN=C1c1ccc(NN=Cc2cccc(O)c2O)cc1 (centres unmarked) [Example 7, 6-{4-[N′-(2,3-Dihydroxy-benzylidene)-hydrazino]-phenyl}-5-methyl-4,5-dihydro-2H-pyridazin-3-one] | 245 to 247 °C |
| CC1CC(=O)NN=C1c1ccc(NN=C(CCC(=O)O)c2ccc(O)cc2O)cc1 (centres unmarked) [Example 64, 4-(2,4-Dihydroxy-phenyl)-4-{[4-(4-methyl-6-oxo-1,4,5,6-tetrahydro-pyridazin-3-yl)-phenyl]-hydrazono}-butyric acid] | 299 to 302 °C |
| O=c1[nH]nc(-c2ccc(NN=C(c3ccc(O)cc3)c3ccc(O)cc3O)cc2)c2ccccc12 [Example 16, 4-(4-{N′-[(2,4-Dihydroxy-phenyl)-(4-hydroxy-phenyl)-methylene]-hydrazino}-phenyl)-2H-phthalazin-1-one] | 150 to 160 °C |
| COc1ccc(CCC(=NNc2ccc(C3=NNC(=O)CC3C)cc2)c2ccc(O)cc2O)cc1OC (centres unmarked) [Example 14, 6-(4-{N′-[1-(2,4-Dihydroxy-phenyl)-3-(3,4-dimethoxy-phenyl)-propylidene]-hydrazino}-phenyl)-5-methyl-4,5-dihydro-2H-pyridazin-3-one] | 135 to 140 °C |
| COc1ccccc1C=NNc1ccc(C2=NNC(=O)CC2C)cc1 (centres unmarked) [Example 53, 6-{4-[N′-(2-Methoxy-benzylidene)-hydrazino]-phenyl}-5-methyl-4,5-dihydro-2H-pyridazin-3-one] | 180 to 183 °C |

| SMILES | melting point |
| --- | --- |
| O=c1[nH]nc(-c2ccc(NN=C(c3ccccc3)c3ccc(O)cc3O)cc2)c2ccccc12 [Example 15, 4-(4-{N′-[(2,4-Dihydroxy-phenyl)-phenyl-methylene]-hydrazino}-phenyl)-2H-phthalazin-1-one] | 160 to 170 °C |
| CC1CC(=O)NN=C1c1ccc(NN=C(CCCC(=O)O)c2ccc(O)cc2O)cc1 (centres unmarked) [Example 66, 5-(2,4-Dihydroxy-phenyl)-5-{[4-(4-methyl-6-oxo-1,4,5,6-tetrahydro-pyridazin-3-yl)-phenyl]-hydrazono}-pentanoic acid] | 235 to 240 °C |
| CCC1CC(=O)NN=C1c1ccc(NN=Cc2ccc(O)cc2O)cc1 (centres unmarked) [Example 36, 6-{4-[N′-(2,4-Dihydroxy-benzylidene)-hydrazino]-phenyl}-5-ethyl-4,5-dihydro-2H-pyridazin-3-one] | 270 to 275 °C |
| CC1CC(=O)NN=C1c1ccc(C(=NN)c2cccc(C#N)c2)cc1 (centres unmarked) [Example 20, 3-{[4-(4-Methyl-6-oxo-1,4,5,6-tetrahydropyridazin-3-yl)phenyl]-hydrazonomethyl}-benzonitrile] | 220 to 224 °C |
| CC1CC(=O)NN=C1c1ccc(C(=NN)c2ccc(C#N)cc2)cc1 (centres unmarked) [Example 60, 4-{[4-(4-Methyl-6-oxo-1,4,5,6-tetrahydro-pyridazin-3-yl)-phenyl]-hydrazonomethyl}-benzonitrile] | 246 to 248 °C |
| Cn1nc(-c2ccc(NN=C(CCC(=O)O)c3ccc(O)cc3O)cc2)ccc1=O [Example 29, 4-(2,4-Dihydroxyphenyl)-4-{[4-(1-methyl-6-oxo-1,6-dihydropyridazin-3-yl)phenyl]hydrazono}butyric acid] | 138 to 141 °C |
| CCCCc1c(O)ccc(C=NNc2ccc(C3=NNC(=O)CC3C)cc2)c1O (centres unmarked) [Example 44, 6-{4-[N′-(3-Butyl-2,4-dihydroxy-benzylidene)-hydrazino]-phenyl}-5-methyl-4,5-dihydro-2H-pyridazin-3-one] | 218 °C |
| CC1CC(=O)NN=C1c1ccc(NN=Cc2ccc(O)c([N+](=O)[O-])c2)cc1 (centres unmarked) [Example 63, 6-{4-[N′-(4-Hydroxy-3-nitro-benzylidene)-hydrazino]-phenyl}-5-methyl-4,5-dihydro-2H-pyridazin-3-one] | 230 to 233 °C |
| CCC(=NNc1ccc(-c2ccc(=O)n(C)n2)cc1)c1ccc(O)cc1O [Example 27, 6-{4-{N′-[1-(2,4-Dihydroxyphenyl)propylidene]hydrazino}phenyl}-2-methyl-2H-pyridazin-3-one] | 225 to 233 °C |
| CC1CC(=O)NN=C1c1ccc(NN=Cc2cc(O)ccc2O)cc1 (centres unmarked) [Example 8, 6-{4-[N′-(2,5-Dihydroxy-benzylidene)-hydrazino]-phenyl}-5-methyl-4,5-dihydro-2H-pyridazin-3-one] | 317 to 320 °C |
| CC1CC(=O)NN=C1c1ccc(C(=NN)c2ccc(O)c(C(=O)O)c2O)cc1 (centres unmarked) [Example 56, 2,6-Dihydroxy-3-{[4-(4-methyl-6-oxo-1,4,5,6-tetrahydro-pyridazin-3-yl)-phenyl]-hydrazonomethyl}-benzoic acid] | 215 to 218 °C |
| COc1c(OC(C)=O)ccc(C(=NN)c2ccc(C3=NNC(=O)CC3C)cc2)c1[N+](=O)[O-] (centres unmarked) [Example 12, Acetic acid 2-Methoxy-4-{[4-(4-methyl-6-oxo-1,4,5,6-tetrahydro-pyridazin-3-yl)-phenyl]-hydrazonomethyl}-3-nitro-phenyl ester] | 220 to 223 °C |
| Cn1nc(-c2ccc(NN=Cc3ccc(O)cc3O)cc2)ccc1=O [Example 25, 6-{4-[N′-(2,4-Dihydroxybenzylidene)hydrazino]phenyl}-2-methyl-2H-pyridazin-3-one] | 304 to 306 °C |
| CC(=O)c1c(O)ccc(C=NNc2ccc(C3=NNC(=O)CC3C)cc2)c1O (centres unmarked) [Example 39, 6-{4-[N′-(3-Acetyl-2,4-dihydroxy-benzylidene)-hydrazino]-phenyl}-5-methyl-4,5-dihydro-2H-pyridazin-3-one] | 268 to 270 °C |
| CC1CC(=O)NN=C1c1ccc(NN=Cc2ccc(O)c(O)c2[N+](=O)[O-])cc1 (centres unmarked) [Example 9, 6-{4-[N′-(3,4-Dihydroxy-2-nitro-benzylidene)-hydrazino]-phenyl}-5-methyl-4,5-dihydro-2H-pyridazin-3-one] | 239 to 241 °C |
| CCc1c(O)ccc(C=NNc2ccc(-c3ccc(=O)n(C)n3)cc2)c1O [Example 28, 6-{4-[N′-(2,4-Dihydroxy-3-ethylbenzylidene)hydrazino]phenyl}-2-methyl-2H-pyridazin-3-one] | 262 to 266 °C |
| CCOC(=O)c1c(O)ccc(C(=NN)c2ccc(C3=NNC(=O)CC3C)cc2)c1O (centres unmarked) [Example 3, 2,6-Dihydroxy-3-{[4-(4-methyl-6-oxo-1,4,5,6-tetrahydro-pyridazin-3-yl)-phenyl]-hydrazonomethyl}-benzoic acid Ethyl Ester] | 203 to 208 °C |
| CC1CC(=O)NN=C1c1ccc(NN=Cc2ccc(S(C)(=O)=O)cc2)cc1 (centres unmarked) [Example 19, 6-{4-[N′-(4-Methanesulfonylbenzylidene)hydrazino]phenyl}-5-methyl-4,5-dihydro-2H-pyridazin-3-one] | 130 to 137 °C |
| CC(=O)Nc1ccc(C(=NN)c2ccc(C3=NNC(=O)CC3C)cc2)c(O)c1 (centres unmarked) [Example 41, N-(3-Hydroxy-4-{[4-(4-methyl-6-oxo-1,4,5,6-tetrahydro-pyridazin-3-yl)-phenyl]-hydrazonomethyl}-phenyl)-acetamide] | 269 to 275 °C |
